{"source": "patent US20220096529A1", "about": "“2-HYDROXYPROPYL-BETA-CYCLODEXTRIN (HPBETACD) FOR USE IN THE TREATMENT OF BREAST CANCER” (UNIVERSITY OF THE WITWATERSRAND, JOHANNESBURG, priority 2019, published 2022)", "key": {"HEK-293 cells": {"tested_on": "HEK-293 cells", "format": "cell-based, human", "method": "(§1) Cells were cultured in appropriate medium supplemented with 10% FCS, penicillin (100 U/ml), and streptomycin (100 μg/ml) (Gibco) at 5% CO2 in a 37° C. incubator.\n(§2) Four different cell lines were used MCF7 (ER+). MDA-MB-231 (ER−), MRC-5 (Lung Fibroblasts) and HEK-293 (Embryonic kidney). MRC-5 and/or HEK-293 were used as control cell lines depending on availability.\n(§3) In order to determine whether HPβCD has the ability to induce cancer cell death a primary screening using an MTT assay was performed. Three different time points 24 hrs."}, "MRC-5 cells [1]": {"tested_on": "MRC-5 cells", "format": "cell-based, human", "conditions": "for concentration for 50% growth inhibition in normal cells compared to cancerous cells: MRC-5 and HEK-293 vs cancerous cells", "method": "as §1, §2, §3"}, "MCF7 cells": {"tested_on": "MCF7 cells", "test": "Cholesterol quantification assay", "format": "cell-based, human", "conditions": "MCF7, all concentrations 1, 5, 10, 20, 50 mM", "method": "(§4) To investigate if the apoptosis observed from all the above assays was due to cholesterol depletion, a cholesterol assay was performed on all three cell lines: MCF7, MDA-MB-231 and MRC-5. HPβCD and the positive PL, a known cholesterol depletor were treated for 24 hrs.\n(§5) HPβCD and the positive (40 μM PL) were treated for 24 hrs. This assay gave us an estimate of total cholesterol, cholesterol esters and free cholesterol."}, "MDA-MB-231 cells [2]": {"tested_on": "MDA-MB-231 cells", "test": "Cholesterol quantification assay", "format": "cell-based, human", "conditions": "MDA-MB-231, all concentrations 1, 5, 10, 20, 50 mM", "method": "as §4, §5"}, "MRC-5 cells [3]": {"tested_on": "MRC-5 cells", "test": "Cholesterol quantification assay", "format": "cell-based, human", "method": "as §4, §5"}, "MDA-MB-231 cells [4]": {"tested_on": "MDA-MB-231 cells", "test": "Mice xenograft, triple negative breast cancer", "format": "in vivo, Nude Mice, MF-1 strain", "method": "Since the potency of HPβCD against breast cancer was established in our in vitro assays, a thorough investigation in a mice model was conducted (Nude Mice. MF-1 strain). MCF-7 and MDA-MB-231 cells were injected in 32 mice (16 for each cell type) and after tumour development, was treated with HPβCD (3000 mg/kg b.w.). Thrice a week dose treatment plan was followed throughout the study.\nTo examine if HPβCD can be used as a future anti-breast cancer drug, mice xenografts were prepared. MCF7 cells (5 million) cells were injected in 16 mice with weekly β-estradiol supplementation. The study for triple negative induced breast cancer (MDA-MB-231) is complete. Up to 4 million cells were injected in 16 mice. This was subdivided in three more groups namely: Late stage, intermediate stage and early stage estrogen negative cancer. 4 mice were grouped as untreated (not receiving HPβCD), 4 for treated (late stage), 3 for treated (intermediate stage) and 3 for treated (early stage).\nThis is because MDA-MB-231 cells are extremely aggressive in nature and that is the reason there is any adequate treatments except the side effects prone to chemotherapy. These 4 mice had to be euthanized at this point because of humane end points. In the late stage treated group, the treatment commenced when the size of the tumour was in between 900 mm^3 to 1350 mm^3 (FIG. 30 A, B, C).\nIn the intermediate stage group (n=3), the treatment commenced when the size of the tumours reached […]. Again, after 10 doses of HPβCD treatment we saw the average size of the tumours went down to […] which is a staggering 94% decrease (FIG. 31 B, C) as compared to the untreated group. This was remarkable considering how invasive MDA-MB-231 cells are and HPβCD's ability to tame them was quite phenomenal. Finally, in the early stage group (n=3), the treatment commenced when the tumour size was 20 mm^3 (FIG. 33 A. B). […] These 3 mice were then kept for a period of 4 weeks to check for relapse of tumour because estrogen negative tumours have an extreme propensity to recur."}, "[5]": {"test": "AST/ALT assay of mice serum", "format": "in vivo", "method": "Post-euthanisation, the mice serum was analysed for AST/ALT ([…]) levels in order to observe if HPβCD treatment had any toxic effects on liver of treated mice (FIG. 37). The AST/ALT ratio gives an estimate of liver toxicity or damage. […] The AST/ALT ratio for all the early and intermediate groups was not different from the untreated group, was under the recommended ratio of 2 and the values were below the reference range (40 U/L) except for AST levels in the late group. In latter groups, the ratio of AST/ALT was 2.2 which was slightly above the recommended limit but was not found to be statistically different from the untreated group. […] In this regard review FIG. 37."}, "[6]": {"conditions": "intermediate stage, 3000 mg/kg b.w., 10 doses"}}, "note": "“Also recorded” adds a separate entry of the source. Where two headings read alike, the source gives them in different places.", "data": [{"substance": "2-hydroxypropyl-β-cyclodextrin [HPβCD]", "values": [{"measurement": "IC50", "setting": "HEK-293 cells; HEK-293, 24 hrs", "result": 22.8, "unit": "mM"}, {"measurement": "IC50", "setting": "HEK-293 cells; HEK-293, 48 hrs", "result": 26.5, "unit": "mM"}, {"measurement": "IC50", "setting": "HEK-293 cells; HEK-293, 72 hrs", "result": 50.3, "unit": "mM"}, {"measurement": "growth inhibition", "setting": "HEK-293 cells; HEK-293, till 10 mM HPβCD, 24 hrs and 48 hrs", "result": "absolutely zero growth inhibition"}, {"measurement": "IC50", "setting": "MRC-5 cells [1]; MRC-5, 24 hrs", "result": 20.7, "unit": "mM"}, {"measurement": "IC50", "setting": "MRC-5 cells [1]; MRC-5, 48 hrs", "result": 19.9, "unit": "mM"}, {"measurement": "IC50", "setting": "MRC-5 cells [1]; MRC-5, 72 hrs", "result": 41.7, "unit": "mM"}, {"measurement": "growth inhibition", "setting": "MRC-5 cells [1]; MRC-5, till 10 mM HPβCD, 24 hrs and 48 hrs", "result": "absolutely zero growth inhibition"}, {"measurement": "concentration for 50% growth inhibition in normal cells compared to cancerous cells", "setting": "MRC-5 cells [1]; 24 hrs", "result": "almost double"}, {"measurement": "concentration for 50% growth inhibition in normal cells compared to cancerous cells", "setting": "MRC-5 cells [1]; 72 hrs", "result": "almost five times"}, {"measurement": "total cholesterol content compared to untreated", "setting": "MCF7 cells", "result": "reduced total cholesterol content"}, {"measurement": "total cholesterol content compared to untreated", "setting": "MDA-MB-231 cells [2]", "result": "reduced total cholesterol content"}, {"measurement": "total cholesterol reduction compared to untreated", "setting": "MRC-5 cells [3]; MRC-5, 10 mM HPβCD, 24 hrs", "result": "more than 50%"}, {"measurement": "total cholesterol content compared to untreated", "setting": "MRC-5 cells [3]; MRC-5, all concentrations 1, 5, 10, 20, 50 mM", "result": "reduced total cholesterol content"}, {"measurement": "tumour outcome", "setting": "MDA-MB-231 cells [4]; early stage (20 mm^3 at start), 3000 mg/kg b.w., 10 doses, 3000 mg/kg", "result": "completely healed; also recorded: Complete healing of tumour"}, {"measurement": "average size of the tumours", "setting": "MDA-MB-231 cells [4]; [6]", "result": 784.18, "unit": "mm3"}, {"measurement": "tumour reduction compared to the untreated group", "setting": "MDA-MB-231 cells [4]; [6]", "result": 94, "unit": "%"}, {"measurement": "tumour reduction compared to the untreated group", "setting": "MDA-MB-231 cells [4]; late stage, 3000 mg/kg b.w. intraperitoneally, 10 doses", "result": 73.9, "unit": "%"}, {"measurement": "relapse of tumour", "setting": "MDA-MB-231 cells [4]; three healed early stage mice, 4 weeks", "result": "no recurrence of the tumour; also recorded: no relapse at all"}, {"measurement": "AST/ALT ratio", "setting": "[5]; early and intermediate groups", "result": "< 2"}, {"measurement": "ratio of AST/ALT", "setting": "[5]; late group, mice serum post-euthanisation", "result": 2.2}, {"measurement": "liver toxicity", "setting": "[5]; mouse, in vivo, 3000 mg/kg", "result": "caused no toxicity"}]}]}
